Converted amounts (≈) assume the structure as drawn. “Also recorded” adds a separate entry of the source. Read-outs that look alike come from different tables or passages of the source. No end group written: not given here.
How the values were obtained:
A. baumannii ATCC 19606 = assay: microbe, parasite or virus in culture; format: cell-based, Acinetobacter baumannii; conditions: for MIC: CLSI M100-ED34, MHB, triplicate; for Interpretation: CLSI interpretation of MIC; on Interpretation: key: R, Resistant; I, Intermediate; S, Sensitive
Experimental: (§1) The inhibitory activity of the antimicrobial peptide was assessed using the broth microdilution method following the CLSI M100-ED34 standard ([Humphries et al., 2021]). A single colony of A. baumannii was isolated and inoculated into Mueller-Hinton Broth (MHB), then incubated overnight at 37 °C with agitation at 180 rpm. The overnight cultures were adjusted to a 0.5 McFarland turbidity standard, after which it was diluted 1:100 in MHB medium. […] A. baumannii ATCC 19606 served as the control strain, and the experiments were conducted in triplicate.

CRAB 236 = assay: microbe, parasite or virus in culture; format: cell-based, Acinetobacter baumannii; conditions: for Interpretation: CLSI interpretation of MIC; on Interpretation: key: R, Resistant; I, Intermediate; S, Sensitive
Experimental: as §1

mouse erythrocytes = assay: Hemolytic activity; format: cell-based; conditions: 4% mouse erythrocyte suspension, 37 °C, 1 h, OD 540 nm
Experimental: (§2) To systematically evaluate the biosafety of the antimicrobial peptide AaeAP2a, we assessed its hemolytic activity and cytotoxicity ([Liu et al., 2020a]; [Zhou F. et al., 2022]). A 4% (v/v) erythrocyte suspension was prepared from freshly collected anticoagulated mouse blood by repeatedly resuspending and washing the cells three times with phosphate-buffered saline (PBS), following the established protocol. […] In this test, 1% (v/v) Triton X-100 was used as the positive control. Three replicates per treatment group were used to study OD at 540 nm using a microplate reader. The cytotoxicity of AaeAP2a on human embryonic kidney 293 T cells was tested using the Cell Counting Kit - 8 (CCK-8). […] The CCK-8 assay was thus performed, with three replicates recorded for each concentration.

[1] = system: human embryonic kidney 293 T cells; assay: Cytotoxicity, CCK-8; format: cell-based; conditions: 16 × MIC, 24 h
Experimental: as §2

proteinase K = target: T1, proteinase K (Parengyodontium album, UniProt P06873); assay: Protease resistance, read out by MIC; format: in vitro ADME; conditions: proteinase K 0–100 μg/mL, 1 h, 37 °C; MIC vs ATCC 19606; triplicate
T1 construct: purchased Beyotime Biotechnology (China)
T1 sequence (P06873 106-384): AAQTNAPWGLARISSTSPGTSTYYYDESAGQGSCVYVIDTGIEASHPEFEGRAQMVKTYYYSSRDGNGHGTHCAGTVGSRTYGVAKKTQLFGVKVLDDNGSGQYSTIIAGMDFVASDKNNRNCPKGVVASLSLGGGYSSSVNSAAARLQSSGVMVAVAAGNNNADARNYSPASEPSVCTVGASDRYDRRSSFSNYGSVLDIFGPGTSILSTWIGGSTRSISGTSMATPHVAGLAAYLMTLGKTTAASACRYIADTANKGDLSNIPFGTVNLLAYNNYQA
Experimental: (§3) We thoroughly examined the effects of storage at room temperature, repeated freeze–thaw cycles, temperature variations, pH levels, salt ions, urea, and protease treatment on the antimicrobial activity of peptide AaeAP2a ([Zhu et al., 2022]). Through 0 to 12 freeze–thaw iterations, AaeAP2a was incubated for 1 h at various temperatures (0, 25, 50, 75, and 100 °C) and pH values (3 to 11). Additionally, the peptide was incubated with four salt ions—NaCl, KCl, CaCl2, and MgCl2—at concentrations of […], as well as with urea at concentrations of […] for 1 h. Furthermore, AaeAP2a was treated with proteinase K or trypsin at concentrations ranging from 0 to 100 μg/mL (i.e., 0, 20, 40, 60, 80, and 100 μg/mL) for 1 h at 37 °C. The changes in its antimicrobial activity were quantitatively assessed using the MIC method. All assays were conducted in triplicate. […] Proteinase K, Trypsin, and Urea were obtained from Beyotime Biotechnology (China), while all other reagents were purchased from Macklin (China).

trypsin = assay: Protease resistance, read out by MIC; format: in vitro ADME; conditions: trypsin concentrations exceeding 40 μg/mL, 1 h, 37 °C; MIC vs ATCC 19606; triplicate
Experimental: as §3

horse erythrocytes = conditions: 64 μg/mL; 2% horse erythrocyte suspension; ref Du et al.; cited from earlier work
Excerpt: Safety and stability are essential prerequisites for the clinical application of pharmaceutical agents.

[2] = system: Escherichia coli biofilms; conditions: 1 × MIC; ref Luo et al., 2024; cited from earlier work
Excerpt: In addition to […] the permeability of antimicrobial agents, bacterial biofilms, which rely on a complex matrix of extracellular polymeric substances, support the evolution of bacterial drug resistance, creating a protective barrier against drug-induced killing ([Verderosa et al., 2019]). AMPs have shown dual potential in meeting biofilm-related chronic infections: they can inhibit the initial stages of biofilm formation and eradicate mature biofilms. In this study, AaeAP2a, at a 4 × MIC, obtained an inhibition rate approaching 80% against biofilms formed by two strains of Acinetobacter ...

[3] = Acinetobacter baumannii, ATCC19606, broth microdilution, read-out: MIC
[4] = CRAB 236, broth microdilution, CLSI M100-ED34, MHB, triplicate

Compound	MIC (A. baumannii ATCC 19606; [3])	Interpretation (A. baumannii ATCC 19606)	MIC (CRAB 236; Acinetobacter baumannii)	Interpretation (CRAB 236; CRAB 236)	MIC (A. baumannii ATCC 19606; broth microdilution)	MIC (CRAB 236; [4])	Hemolysis (mouse erythrocytes; 16 × MIC)	Hemolysis (mouse erythrocytes; 64 × MIC (200 μg/mL))	Cell viability [1]	Resistance to proteinase K (proteinase K)	Activity after trypsin treatment (trypsin)	Hemolysis (horse erythrocytes)	Eradication efficiency against Escherichia coli biofilms [2]
CNC(C)C1CCC(N)C(OC2C(N)CC(N)C(OC3OCC(C)(O)C(NC)C3O)C2O)O1 (centres unmarked) [Gentamicin]	1 mg/L (≈ 2.09 µM)	S	> 32 mg/L	R	–	–	–	–	–	–	–	–	–
CN(C)[C@@H]1C(O)=C(C(N)=O)C(=O)[C@@]2(O)C(O)=C3C(=O)c4c(O)cccc4[C@@](C)(O)[C@H]3C[C@@H]12 [Tetracycline]	2 mg/L (≈ 4.5 µM)	S	64 mg/L (≈ 144 µM)	R	–	–	–	–	–	–	–	–	–
C[C@@H](O)[C@H]1C(=O)N2C(C(=O)O)=C(S[C@@H]3CN[C@H](C(=O)N(C)C)C3)[C@H](C)[C@H]12 [Meropenem]	2 mg/L (≈ 5.22 µM)	S	16 mg/L (≈ 41.7 µM)	R	–	–	–	–	–	–	–	–	–
CO/N=C(\C(=O)N[C@@H]1C(=O)N2C(C(=O)O)=C(CSc3nc(=O)c(=O)[nH]n3C)CS[C@H]12)c1csc(N)n1 [Ceftriaxone]	16 mg/L (≈ 28.9 µM)	I	32 mg/L (≈ 57.7 µM)	I	–	–	–	–	–	–	–	–	–
FLFKLIPKAIKGLVKAIRK [AaeAP2a]	–	–	–	–	3.125 mg/L	6.25 mg/L	< 5%	< 5%	> 90%	substantial resistance	markedly reduced; also recorded: diminished	complete lysis	–
Colistin	–	S	–	S	2 mg/L	0.5 mg/L	–	–	–	–	–	–	35%

— publication PMC12602503, “AaeAP2a, a scorpion-derived antimicrobial peptide, combats carbapenem-resistant Acinetobacter baumannii via membrane disruption and triggered metabolic collapse” (Frontiers in Microbiology, 2025)
